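Step 1: Grow cells in 96-well plates. Step 2: Expose to compound for 48 hours at 5 concentrations. Step 3: Interpolate endpoints linearly; if unreached, use highest concentration. The concentration for 50% growth inhibition is given as GI50. The concentration for full growth arrest is given as TGI.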
Legend:
Test in all cases: NCI anticancer screen, dose series, 48 h
NCI/ADR-RES ovarian = tested on: NCI/ADR-RES ovarian
SK-MEL-5 melanoma = tested on: SK-MEL-5 melanoma
SR leukemia = tested on: SR leukemia
BT-549 breast = tested on: BT-549 breast
RXF 393 renal = tested on: RXF 393 renal
EKVX NSCLC = tested on: EKVX NSCLC
K-562 leukemia = tested on: K-562 leukemia
HOP-92 NSCLC = tested on: HOP-92 NSCLC
SK-MEL-28 melanoma = tested on: SK-MEL-28 melanoma
KM12 colon = tested on: KM12 colon
HS 578T breast = tested on: HS 578T breast
HCT-116 colon = tested on: HCT-116 colon
MOLT-4 leukemia = tested on: MOLT-4 leukemia
LOX IMVI melanoma = tested on: LOX IMVI melanoma
CAKI-1 renal = tested on: CAKI-1 renal
NCI-H23 lung = tested on: NCI-H23 lung
PC-3 prostate = tested on: PC-3 prostate
HOP-62 NSCLC = tested on: HOP-62 NSCLC
SK-MEL-2 melanoma = tested on: SK-MEL-2 melanoma
MALME-3M melanoma = tested on: MALME-3M melanoma
ACHN renal = tested on: ACHN renal
NCI-H226 lung = tested on: NCI-H226 lung
OVCAR-8 ovarian = tested on: OVCAR-8 ovarian
SF-268 CNS = tested on: SF-268 CNS
NCI-H522 lung = tested on: NCI-H522 lung
MCF7 breast = tested on: MCF7 breast
HL-60(TB) leukemia = tested on: HL-60(TB) leukemia
SNB-19 CNS = tested on: SNB-19 CNS
RPMI-8226 leukemia = tested on: RPMI-8226 leukemia
U251 CNS = tested on: U251 CNS
SF-295 CNS = tested on: SF-295 CNS
HCC-2998 colon = tested on: HCC-2998 colon
SW-620 colon = tested on: SW-620 colon
HT29 colon = tested on: HT29 colon
HCT-15 colon = tested on: HCT-15 colon
A498 renal = tested on: A498 renal
UACC-257 melanoma = tested on: UACC-257 melanoma
DU-145 prostate = tested on: DU-145 prostate
NCI-H460 lung = tested on: NCI-H460 lung
SF-539 CNS = tested on: SF-539 CNS
A549 NSCLC = tested on: A549 NSCLC
UACC-62 melanoma = tested on: UACC-62 melanoma
COLO 205 colon = tested on: COLO 205 colon
MDA-MB-435 = tested on: MDA-MB-435
CCRF-CEM leukemia = tested on: CCRF-CEM leukemia
TK-10 renal = tested on: TK-10 renal
OVCAR-4 ovarian = tested on: OVCAR-4 ovarian
OVCAR-3 ovarian = tested on: OVCAR-3 ovarian
SK-OV-3 ovarian = tested on: SK-OV-3 ovarian
T-47D breast = tested on: T-47D breast
OVCAR-5 ovarian = tested on: OVCAR-5 ovarian
SNB-75 CNS = tested on: SNB-75 CNS
IGROV1 ovarian = tested on: IGROV1 ovarian
MDA-MB-231 breast = tested on: MDA-MB-231 breast
786-0 renal = tested on: 786-0 renal
SN12C renal = tested on: SN12C renal

SMILES: CNC(=O)c1c(C)oc2cc(Oc3ncnc4cc(OC)c(OC)cc34)ccc12
- GI50 (NCI/ADR-RES ovarian): > 100 µM
- TGI (NCI/ADR-RES ovarian): > 100 µM
- GI50 (SK-MEL-5 melanoma): > 100 µM
- TGI (SK-MEL-5 melanoma): > 100 µM
- GI50 (SR leukemia): > 100 µM
- TGI (SR leukemia): > 100 µM
- GI50 (BT-549 breast): > 100 µM
- TGI (BT-549 breast): > 100 µM
- GI50 (RXF 393 renal): 235 nM
- TGI (RXF 393 renal): 2630 nM
- GI50 (EKVX NSCLC): > 100 µM
- TGI (EKVX NSCLC): > 100 µM
- GI50 (K-562 leukemia): > 100 µM
- TGI (K-562 leukemia): > 100 µM
- GI50 (HOP-92 NSCLC): 3.2 µM
- TGI (HOP-92 NSCLC): > 100 µM
- GI50 (SK-MEL-28 melanoma): > 100 µM
- TGI (SK-MEL-28 melanoma): > 100 µM
- GI50 (KM12 colon): > 100 µM
- TGI (KM12 colon): > 100 µM
- GI50 (HS 578T breast): 4.18 µM
- TGI (HS 578T breast): > 100 µM
- GI50 (HCT-116 colon): > 100 µM
- TGI (HCT-116 colon): > 100 µM
- GI50 (MOLT-4 leukemia): > 100 µM
- TGI (MOLT-4 leukemia): > 100 µM
- GI50 (LOX IMVI melanoma): > 100 µM
- TGI (LOX IMVI melanoma): > 100 µM
- GI50 (CAKI-1 renal): > 100 µM
- TGI (CAKI-1 renal): > 100 µM
- GI50 (NCI-H23 lung): > 100 µM
- TGI (NCI-H23 lung): > 100 µM
- GI50 (PC-3 prostate): > 100 µM
- TGI (PC-3 prostate): > 100 µM
- GI50 (HOP-62 NSCLC): > 100 µM
- TGI (HOP-62 NSCLC): > 100 µM
- GI50 (SK-MEL-2 melanoma): > 100 µM
- TGI (SK-MEL-2 melanoma): > 100 µM
- GI50 (MALME-3M melanoma): > 100 µM
- TGI (MALME-3M melanoma): > 100 µM
- GI50 (ACHN renal): > 100 µM
- TGI (ACHN renal): > 100 µM
- GI50 (NCI-H226 lung): 2470 nM
- TGI (NCI-H226 lung): > 100 µM
- GI50 (OVCAR-8 ovarian): > 100 µM
- TGI (OVCAR-8 ovarian): > 100 µM
- GI50 (SF-268 CNS): > 100 µM
- TGI (SF-268 CNS): > 100 µM
- GI50 (NCI-H522 lung): > 100 µM
- TGI (NCI-H522 lung): > 100 µM
- GI50 (MCF7 breast): > 100 µM
- TGI (MCF7 breast): > 100 µM
- GI50 (HL-60(TB) leukemia): > 100 µM
- TGI (HL-60(TB) leukemia): > 100 µM
- GI50 (SNB-19 CNS): > 100 µM
- TGI (SNB-19 CNS): > 100 µM
- GI50 (RPMI-8226 leukemia): > 100 µM
- TGI (RPMI-8226 leukemia): > 100 µM
- GI50 (U251 CNS): 5.51 µM
- TGI (U251 CNS): > 100 µM
- GI50 (SF-295 CNS): > 100 µM
- TGI (SF-295 CNS): > 100 µM
- GI50 (HCC-2998 colon): > 100 µM
- TGI (HCC-2998 colon): > 100 µM
- GI50 (SW-620 colon): > 100 µM
- TGI (SW-620 colon): > 100 µM
- GI50 (HT29 colon): > 100 µM
- TGI (HT29 colon): > 100 µM
- GI50 (HCT-15 colon): > 100 µM
- TGI (HCT-15 colon): > 100 µM
- GI50 (A498 renal): 946 nM
- TGI (A498 renal): 5.44 µM
- GI50 (UACC-257 melanoma): > 100 µM
- TGI (UACC-257 melanoma): > 100 µM
- GI50 (DU-145 prostate): > 100 µM
- TGI (DU-145 prostate): > 100 µM
- GI50 (NCI-H460 lung): > 100 µM
- TGI (NCI-H460 lung): > 100 µM
- GI50 (SF-539 CNS): 2030 nM
- TGI (SF-539 CNS): > 100 µM
- GI50 (A549 NSCLC): > 100 µM
- TGI (A549 NSCLC): > 100 µM
- GI50 (UACC-62 melanoma): > 100 µM
- TGI (UACC-62 melanoma): > 100 µM
- GI50 (COLO 205 colon): > 100 µM
- TGI (COLO 205 colon): > 100 µM
- GI50 (MDA-MB-435): > 100 µM
- TGI (MDA-MB-435): > 100 µM
- GI50 (CCRF-CEM leukemia): > 100 µM
- TGI (CCRF-CEM leukemia): > 100 µM
- GI50 (TK-10 renal): > 100 µM
- TGI (TK-10 renal): > 100 µM
- GI50 (OVCAR-4 ovarian): > 100 µM
- TGI (OVCAR-4 ovarian): > 100 µM
- GI50 (OVCAR-3 ovarian): > 100 µM
- TGI (OVCAR-3 ovarian): > 100 µM
- GI50 (SK-OV-3 ovarian): > 100 µM
- TGI (SK-OV-3 ovarian): > 100 µM
- GI50 (T-47D breast): > 100 µM
- TGI (T-47D breast): > 100 µM
- GI50 (OVCAR-5 ovarian): > 100 µM
- TGI (OVCAR-5 ovarian): > 100 µM
- GI50 (SNB-75 CNS): 2350 nM
- TGI (SNB-75 CNS): > 100 µM
- GI50 (IGROV1 ovarian): > 100 µM
- TGI (IGROV1 ovarian): > 100 µM
- GI50 (MDA-MB-231 breast): > 100 µM
- TGI (MDA-MB-231 breast): > 100 µM
- GI50 (786-0 renal): > 100 µM
- TGI (786-0 renal): > 100 µM
- GI50 (SN12C renal): > 100 µM
- TGI (SN12C renal): > 100 µM

Source: PubChem BioAssay (NCI)
